Laboratory results as given in the CheMixHub viscosity set.

Experiment: xn = mol fraction of the nth substance listed

Oc1ccccc1Cl + CN(C)c1ccccc1
101 kPa
Settings | viscosity [mPa·s]
293.15 K, x1 = 0.1395 | 1.859
293.15 K, x1 = 0.2654 | 2.43
293.15 K, x1 = 0.3923 | 3.05
293.15 K, x1 = 0.5102 | 3.7
293.15 K, x1 = 0.5898 | 4.14
293.15 K, x1 = 0.6926 | 4.69
293.15 K, x1 = 0.743 | 4.89
293.15 K, x1 = 0.7994 | 5
293.15 K, x1 = 0.8299 | 4.98
293.15 K, x1 = 0.896 | 4.74
298 K, x1 = 0.1002 | 1.53
298 K, x1 = 0.199 | 1.698
298 K, x1 = 0.3025 | 2.194
298 K, x1 = 0.4016 | 2.558
298 K, x1 = 0.502 | 3.036
298 K, x1 = 0.6009 | 3.48
298 K, x1 = 0.6991 | 3.758
298 K, x1 = 0.8 | 3.852
298 K, x1 = 0.9019 | 3.691
303 K, x1 = 0.1002 | 1.384
303 K, x1 = 0.199 | 1.522
303 K, x1 = 0.3025 | 1.937
303 K, x1 = 0.4016 | 2.2
303 K, x1 = 0.502 | 2.564
303 K, x1 = 0.6009 | 2.904
303 K, x1 = 0.6991 | 3.121
303 K, x1 = 0.8 | 3.212
303 K, x1 = 0.9019 | 3.106
303.15 K, x1 = 0.1395 | 1.473
303.15 K, x1 = 0.2654 | 1.89
303.15 K, x1 = 0.3923 | 2.35
303.15 K, x1 = 0.5102 | 2.79
303.15 K, x1 = 0.5898 | 3.09
303.15 K, x1 = 0.6926 | 3.41
303.15 K, x1 = 0.743 | 3.505
303.15 K, x1 = 0.7994 | 3.545
303.15 K, x1 = 0.8299 | 3.545
303.15 K, x1 = 0.896 | 3.41
308 K, x1 = 0.1002 | 1.254
308 K, x1 = 0.199 | 1.366
308 K, x1 = 0.3025 | 1.702
308 K, x1 = 0.4016 | 1.951
308 K, x1 = 0.502 | 2.221
308 K, x1 = 0.6009 | 2.476
308 K, x1 = 0.6991 | 2.681
308 K, x1 = 0.8 | 2.757
308 K, x1 = 0.9019 | 2.662
313 K, x1 = 0.1002 | 1.171
313 K, x1 = 0.199 | 1.234
313 K, x1 = 0.3025 | 1.527
313 K, x1 = 0.4016 | 1.736
313 K, x1 = 0.502 | 1.965
313 K, x1 = 0.6009 | 2.152
313 K, x1 = 0.6991 | 2.335
313 K, x1 = 0.8 | 2.397
313 K, x1 = 0.9019 | 2.36
313.15 K, x1 = 0.1395 | 1.243
313.15 K, x1 = 0.2654 | 1.41
313.15 K, x1 = 0.3923 | 1.66
313.15 K, x1 = 0.5102 | 1.915
313.15 K, x1 = 0.5898 | 2.085
313.15 K, x1 = 0.6926 | 2.305
313.15 K, x1 = 0.743 | 2.4
313.15 K, x1 = 0.7994 | 2.47
313.15 K, x1 = 0.8299 | 2.475
313.15 K, x1 = 0.896 | 2.45
318 K, x1 = 0.1002 | 1.077
318 K, x1 = 0.199 | 1.122
318 K, x1 = 0.3025 | 1.382
318 K, x1 = 0.4016 | 1.56
318 K, x1 = 0.502 | 1.728
318 K, x1 = 0.6009 | 1.899
318 K, x1 = 0.6991 | 2.05
318 K, x1 = 0.8 | 2.173
318 K, x1 = 0.9019 | 2.028

CCCN + CCCCCO
viscosity [mPa·s], 101.33 kPa
Settings | x1 = 0.0915 | x1 = 0.1847 | x1 = 0.3069 | x1 = 0.4139 | x1 = 0.4894 | x1 = 0.581 | x1 = 0.7163 | x1 = 0.8117 | x1 = 0.9
303.15 K | 2.504 | 2.167 | 1.755 | 1.431 | 1.224 | 0.9914 | 0.7168 | 0.5615 | 0.4508
313.15 K | 2.066 | 1.79 | 1.437 | 1.176 | 1.003 | 0.8193 | 0.6111 | 0.488 | 0.3958

CCCCOC(C)=O + CCC(C)O
viscosity [mPa·s], 100 kPa
Settings | x1 = 0.081 | x1 = 0.16 | x1 = 0.24 | x1 = 0.35 | x1 = 0.44 | x1 = 0.5598 | x1 = 0.6499 | x1 = 0.74 | x1 = 0.85 | x1 = 0.94
293.15 K | 2.444 | 1.639 | 1.195 | 0.976 | 0.907 | 0.859 | 0.827 | 0.794 | 0.757 | 0.736
298.15 K | 2.041 | 1.423 | 1.045 | 0.87 | 0.805 | 0.768 | 0.746 | 0.732 | 0.703 | 0.681
303.15 K | 1.797 | 1.267 | 0.941 | 0.767 | 0.713 | 0.692 | 0.677 | 0.663 | 0.649 | 0.636
308.15 K | 1.523 | 1.084 | 0.844 | 0.692 | 0.644 | 0.618 | 0.604 | 0.597 | 0.592 | 0.584
313.15 K | 1.28 | 0.951 | 0.756 | 0.633 | 0.585 | 0.555 | 0.544 | 0.541 | 0.546 | 0.542
318.15 K | 1.111 | 0.828 | 0.681 | 0.575 | 0.531 | 0.506 | 0.5 | 0.5 | 0.502 | 0.501
323.15 K | 0.963 | 0.748 | 0.619 | 0.535 | 0.497 | 0.477 | 0.466 | 0.46 | 0.455 | 0.457

Oc1ccccc1Cl + CCO
Settings | viscosity [mPa·s]
298.15 K, 101 kPa, x1 = 0.5 | 1.452

CCCOC(=O)c1ccccc1 + CCCCCCCC
101 kPa
Settings | viscosity [mPa·s]
298.15 K, x2 = 0.0773 | 2.082
298.15 K, x2 = 0.1026 | 1.998
298.15 K, x2 = 0.1613 | 1.792
298.15 K, x2 = 0.2565 | 1.512
298.15 K, x2 = 0.3067 | 1.381
298.15 K, x2 = 0.3482 | 1.286
298.15 K, x2 = 0.3951 | 1.187
298.15 K, x2 = 0.4424 | 1.094
298.15 K, x2 = 0.4882 | 1.018
298.15 K, x2 = 0.5342 | 0.948
298.15 K, x2 = 0.5836 | 0.882
298.15 K, x2 = 0.6253 | 0.828
298.15 K, x2 = 0.6796 | 0.769
298.15 K, x2 = 0.727 | 0.723
298.15 K, x2 = 0.8351 | 0.633
298.15 K, x2 = 0.9429 | 0.558
308.15 K, x2 = 0.0816 | 1.645
308.15 K, x2 = 0.13 | 1.512
308.15 K, x2 = 0.1656 | 1.421
308.15 K, x2 = 0.2095 | 1.318
308.15 K, x2 = 0.2541 | 1.225
308.15 K, x2 = 0.2993 | 1.136
308.15 K, x2 = 0.3584 | 1.034
308.15 K, x2 = 0.3968 | 0.972
308.15 K, x2 = 0.4503 | 0.897
308.15 K, x2 = 0.4892 | 0.846
308.15 K, x2 = 0.5375 | 0.79
308.15 K, x2 = 0.5822 | 0.743
308.15 K, x2 = 0.6192 | 0.707
308.15 K, x2 = 0.6824 | 0.653
308.15 K, x2 = 0.7188 | 0.625
308.15 K, x2 = 0.7692 | 0.588
308.15 K, x2 = 0.8292 | 0.55
308.15 K, x2 = 0.8674 | 0.527
308.15 K, x2 = 0.9303 | 0.497
318.15 K, x2 = 0.0629 | 1.422
318.15 K, x2 = 0.09 | 1.361
318.15 K, x2 = 0.1362 | 1.261
318.15 K, x2 = 0.1878 | 1.163
318.15 K, x2 = 0.233 | 1.081
318.15 K, x2 = 0.2525 | 1.047
318.15 K, x2 = 0.33 | 0.926
318.15 K, x2 = 0.3813 | 0.856
318.15 K, x2 = 0.4267 | 0.801
318.15 K, x2 = 0.4776 | 0.744
318.15 K, x2 = 0.5373 | 0.686
318.15 K, x2 = 0.5751 | 0.653
318.15 K, x2 = 0.6208 | 0.616
318.15 K, x2 = 0.671 | 0.581
318.15 K, x2 = 0.7073 | 0.556
318.15 K, x2 = 0.7545 | 0.53
318.15 K, x2 = 0.8156 | 0.497
318.15 K, x2 = 0.8667 | 0.472
318.15 K, x2 = 0.9127 | 0.453
